Data on one compound can be found in patent US20110071094A1, “(D)-ALLOSE INDUCING PROGRAMMED CELL DEATH IN HORMONE REFRACTORY PROSTATE CANCER LINES” (INDUSTRY-ACADEMIC COOPERATION FOUDATION, GYEONGSANG …, priority 2008, published 2011).

One data set has as its system PrEC cell line. Description: Cell viability / cell growth, MTT assay. Format: cell-based. The following applies: human NPE cell line PrEC, 0-40 mM. Here is the method:
DU145 (human HRPC cell line, derived from a patient with brain metastasis) and PrEC (human normal prostate epithelial cell line) cell lines were obtained from Korea Cell Line Bank (KCLB, Seoul, South Korea). DU145 and PrEC cell lines were grown in triplicate culture plates containing RPMI-1640 (HyClone, Logan, Utah, USA) and Dulbecco's Modified Eagle's Medium (HyClone, Logan, Utah, USA) respectively, and kept in a humidified atmosphere containing 5% CO2 at 37° C. for 72 h. The media were supplemented with 10% heat-inactivated fetal bovine serum (HyClone, Logan, Utah, USA), 1% antibio-antimicotic solution containing 10,000 units/ml of penicillin and 10 mg/ml of streptomycin (HyClone, Logan, Utah, USA), HEPES, sodium bicarbonate, p-aminobenzoic acid and insulin (complete culture media). […]
The logarithmic growth phase of DU145 and PrEC cell lines were taken for growth assay using 3-[4,5-dimethylthiazol-2-yl]-2,5-diphenyl tetrazolium bromide (MTT). […] After incubation for the specified time at 37° C. in a humidified 5% CO2 incubator, cell viability was determined. […] To achieve solubilization of formazan crystal formed in viable cells, DMSO was added to each well, and the absorbance was recorded on a microplate reader at 595 nm wavelength. The effect of sugars on growth inhibition was assessed as percent cell viability where control cells were taken as 100% viable.

A further data set has as its system Bcl-2/Bax ratio. Description: Calculation of Bcl-2/Bax ratio from densitometry of protein bands. The class given is cell-based, human. The settings on record: 72 h, 0.896 at 0 Mm. Here is the method: After 0, 20 and 40 mM of D-allose treatments for 72 h, DU145 cell line (1×10^6 cells in triplicate culture plates) was harvested into cell lysis buffer (Cell Signaling, Danvers, Mass., USA) supplemented with 1 mM PMSF. The cells were then sonicated, centrifuged and protein concentration was measured by Bradford assay with the Bio-Rad protein assay solution using bovine serum albumin (BSA) as standard. Proteins (30 μg) were separated on a 12.5% SDS-PAGE under reducing conditions and transferred onto a PVDF membrane (Santa Cruz Biotechnology, Santa Cruz, Calif., USA). Prestained protein marker, broad range: 6-175 kDa (New England Biolabs Inc., Ipswich, Mass., USA) run in parallel for detection of the molecular weights of the proteins. […] Membrane was probed with a goat derived horseradish peroxidase-conjugated anti-rabbit IgG (1:1000; Santa Cruz Biotechnology, Santa Cruz, Calif., USA), and proteins were detected by the enhanced chemiluminescence (ECL) detection system according to the vendor's protocol (Amersham Biosciences, Piscataway, N.J., USA) followed by X-ray exposure. […] Bcl-2/bax ratios of D-allose treated groups were calculated on the basis of the densitometric analysis of the corresponding protein bands and compared the values with that of the untreated control.

For the next data set, the system named is caspase 3. Put plainly: Western blot analysis of caspase 3 protein in DU145. The settings on record: DU145, 0, 20 and 40 mM, 72 h. The class given is cell-based, human. The procedure: After 0, 20 and 40 mM of D-allose treatments for 72 h, DU145 cell line (1×10^6 cells in triplicate culture plates) was harvested into cell lysis buffer (Cell Signaling, Danvers, Mass., USA) supplemented with 1 mM PMSF. The cells were then sonicated, centrifuged and protein concentration was measured by Bradford assay with the Bio-Rad protein assay solution using bovine serum albumin (BSA) as standard. Proteins (30 μg) were separated on a 12.5% SDS-PAGE under reducing conditions and transferred onto a PVDF membrane (Santa Cruz Biotechnology, Santa Cruz, Calif., USA). Prestained protein marker, broad range: 6-175 kDa (New England Biolabs Inc., Ipswich, Mass., USA) run in parallel for detection of the molecular weights of the proteins. Membrane was blocked with 5% (w/v) skimmed milk in order to reduce non-specific binding and immunoblotting was performed using rabbit derived anti-Bcl-2, anti-Bax, anti-Caspase 3 and anti-PARP antibodies (1:500; Santa Cruz Biotechnology, Santa Cruz, Calif., USA). […] Membrane was probed with a goat derived horseradish peroxidase-conjugated anti-rabbit IgG (1:1000; Santa Cruz Biotechnology, Santa Cruz, Calif., USA), and proteins were detected by the enhanced chemiluminescence (ECL) detection system according to the vendor's protocol (Amersham Biosciences, Piscataway, N.J., USA) followed by X-ray exposure. […]

Take `O=C[C@H](O)[C@H](O)[C@H](O)[C@H](O)CO` [D-allose]: the “effect on growth of PrEC cell line” value in the data set with PrEC cell line is on record as “no remarkable effect”. In the data set with Bcl-2/Bax ratio (DU145, 20 Mm), the Bcl-2/Bax ratio is reported as 0.335. For the same compound, the Bcl-2/Bax ratio in the data set with Bcl-2/Bax ratio (DU145, 40 Mm) is recorded as 0.126. Moreover, in the data set on caspase 3, the “cleaved caspase 3 product” value is reported as “concomitant increase” and the “full length caspase 3 protein expression” value was “remarkable dose-dependent decrease”.
